PubChem BioAssay (NCI)
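Grown in 96-well plates, cells were treated for 48 hours with each compound at five concentrations. Insufficient inhibition: endpoint recorded as highest concentration tested. GI50 is the concentration that inhibits growth by half. TGI is the concentration that stops growth completely.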

What was measured:
Test in all cases: NCI anticancer screen, dose series, 48 h
HT29 colon = test system: HT29 colon
OVCAR-5 ovarian = test system: OVCAR-5 ovarian
OVCAR-3 ovarian = test system: OVCAR-3 ovarian
HOP-92 NSCLC = test system: HOP-92 NSCLC
HS 578T breast = test system: HS 578T breast
U251 CNS = test system: U251 CNS
OVCAR-4 ovarian = test system: OVCAR-4 ovarian
ACHN renal = test system: ACHN renal
EKVX NSCLC = test system: EKVX NSCLC
SK-MEL-28 melanoma = test system: SK-MEL-28 melanoma
PC-3 prostate = test system: PC-3 prostate
TK-10 renal = test system: TK-10 renal
DU-145 prostate = test system: DU-145 prostate
A549 NSCLC = test system: A549 NSCLC
MALME-3M melanoma = test system: MALME-3M melanoma
MDA-MB-435 = test system: MDA-MB-435
CCRF-CEM leukemia = test system: CCRF-CEM leukemia
NCI-H522 lung = test system: NCI-H522 lung
SK-MEL-2 melanoma = test system: SK-MEL-2 melanoma
SNB-19 CNS = test system: SNB-19 CNS
HL-60(TB) leukemia = test system: HL-60(TB) leukemia
SF-268 CNS = test system: SF-268 CNS
SF-295 CNS = test system: SF-295 CNS
SK-OV-3 ovarian = test system: SK-OV-3 ovarian
UACC-257 melanoma = test system: UACC-257 melanoma
KM12 colon = test system: KM12 colon
CAKI-1 renal = test system: CAKI-1 renal
SF-539 CNS = test system: SF-539 CNS
NCI/ADR-RES ovarian = test system: NCI/ADR-RES ovarian
SK-MEL-5 melanoma = test system: SK-MEL-5 melanoma
786-0 renal = test system: 786-0 renal
NCI-H226 lung = test system: NCI-H226 lung
M14 melanoma = test system: M14 melanoma
HCC-2998 colon = test system: HCC-2998 colon
IGROV1 ovarian = test system: IGROV1 ovarian
UACC-62 melanoma = test system: UACC-62 melanoma
NCI-H460 lung = test system: NCI-H460 lung
MCF7 breast = test system: MCF7 breast
BT-549 breast = test system: BT-549 breast
RXF 393 renal = test system: RXF 393 renal
HCT-116 colon = test system: HCT-116 colon
OVCAR-8 ovarian = test system: OVCAR-8 ovarian
SW-620 colon = test system: SW-620 colon
HOP-62 NSCLC = test system: HOP-62 NSCLC
RPMI-8226 leukemia = test system: RPMI-8226 leukemia
SNB-75 CNS = test system: SNB-75 CNS
SN12C renal = test system: SN12C renal
MDA-MB-231 breast = test system: MDA-MB-231 breast
HCT-15 colon = test system: HCT-15 colon
UO-31 renal = test system: UO-31 renal
A498 renal = test system: A498 renal
NCI-H23 lung = test system: NCI-H23 lung

For `COc1ccc(OC)c(-c2cn3nc(-c4c[nH]c5ccc(Br)cc45)sc3n2)c1`, the GI50 (HT29 colon) was 2.28 µM, the TGI (HT29 colon) was 4.75 µM and the GI50 (OVCAR-5 ovarian) was 3.52 µM. The TGI (OVCAR-5 ovarian) was 15.6 µM, the GI50 (OVCAR-3 ovarian) was 1.96 µM and the TGI (OVCAR-3 ovarian) was 4.32 µM. The GI50 (HOP-92 NSCLC) was 2.01 µM, the TGI (HOP-92 NSCLC) was 5.68 µM and the GI50 (HS 578T breast) was 2.87 µM. The TGI (HS 578T breast) was 14.5 µM, the GI50 (U251 CNS) was 2.02 µM and the TGI (U251 CNS) was 4.09 µM. It also gave a GI50 (OVCAR-4 ovarian) of 1.8 µM, a TGI (OVCAR-4 ovarian) of 3.8 µM and a GI50 (ACHN renal) of 2.02 µM. The TGI (ACHN renal) was 6.49 µM, the GI50 (EKVX NSCLC) was 2.83 µM and the TGI (EKVX NSCLC) was 11.4 µM. It also gave a GI50 (SK-MEL-28 melanoma) of 3.29 µM, a TGI (SK-MEL-28 melanoma) of 11.7 µM and a GI50 (PC-3 prostate) of 1.87 µM. It also gave a TGI (PC-3 prostate) of 4.66 µM, a GI50 (TK-10 renal) of 3.18 µM and a TGI (TK-10 renal) of 6.54 µM. The GI50 (DU-145 prostate) was 2.8 µM, the TGI (DU-145 prostate) was 7.71 µM and the GI50 (A549 NSCLC) was 2.31 µM. For the same compound, the TGI (A549 NSCLC) was 5.31 µM, the GI50 (MALME-3M melanoma) was 2.25 µM and the TGI (MALME-3M melanoma) was 4.93 µM. For the same compound, the GI50 (MDA-MB-435) was 2.42 µM, the TGI (MDA-MB-435) was 5.83 µM and the GI50 (CCRF-CEM leukemia) was 3.73 µM. The TGI (CCRF-CEM leukemia) was over 100 µM, the GI50 (NCI-H522 lung) was 1.98 µM and the TGI (NCI-H522 lung) was 4.81 µM. It also gave a GI50 (SK-MEL-2 melanoma) of 3.33 µM, a TGI (SK-MEL-2 melanoma) of 13.4 µM and a GI50 (SNB-19 CNS) of 4.51 µM. The TGI (SNB-19 CNS) was 18.6 µM, the GI50 (HL-60(TB) leukemia) was 9.21 µM and the TGI (HL-60(TB) leukemia) was over 100 µM. For the same compound, the GI50 (SF-268 CNS) was 2.7 µM, the TGI (SF-268 CNS) was 7.6 µM and the GI50 (SF-295 CNS) was 4.7 µM. For the same compound, the TGI (SF-295 CNS) was 16.3 µM, the GI50 (SK-OV-3 ovarian) was 9.01 µM and the TGI (SK-OV-3 ovarian) was 22.8 µM. It also gave a GI50 (UACC-257 melanoma) of 7.45 µM, a TGI (UACC-257 melanoma) of 30.7 µM and a GI50 (KM12 colon) of 2.19 µM. The TGI (KM12 colon) was 6.24 µM, the GI50 (CAKI-1 renal) was 2.04 µM and the TGI (CAKI-1 renal) was 6.22 µM. For the same compound, the GI50 (SF-539 CNS) was 1.78 µM, the TGI (SF-539 CNS) was 3.41 µM and the GI50 (NCI/ADR-RES ovarian) was 3.38 µM. The TGI (NCI/ADR-RES ovarian) was 10.9 µM, the GI50 (SK-MEL-5 melanoma) was 3.86 µM and the TGI (SK-MEL-5 melanoma) was 15.2 µM. It also gave a GI50 (786-0 renal) of 2.16 µM, a TGI (786-0 renal) of 4.57 µM and a GI50 (NCI-H226 lung) of 10.3 µM. The TGI (NCI-H226 lung) was 39.8 µM, the GI50 (M14 melanoma) was 2.1 µM and the TGI (M14 melanoma) was 4.75 µM. For the same compound, the GI50 (HCC-2998 colon) was 2.67 µM, the TGI (HCC-2998 colon) was 7.75 µM and the GI50 (IGROV1 ovarian) was 2.27 µM. It also gave a TGI (IGROV1 ovarian) of 11.5 µM, a GI50 (UACC-62 melanoma) of 3.15 µM and a TGI (UACC-62 melanoma) of 13.2 µM. The GI50 (NCI-H460 lung) was 2.04 µM, the TGI (NCI-H460 lung) was 4.17 µM and the GI50 (MCF7 breast) was 1.77 µM. It also gave a TGI (MCF7 breast) of 5.13 µM, a GI50 (BT-549 breast) of 2.9 µM and a TGI (BT-549 breast) of 11.2 µM. For the same compound, the GI50 (RXF 393 renal) was 3.19 µM, the TGI (RXF 393 renal) was 8.82 µM and the GI50 (HCT-116 colon) was 1.67 µM. For the same compound, the TGI (HCT-116 colon) was 3.28 µM, the GI50 (OVCAR-8 ovarian) was 3.01 µM and the TGI (OVCAR-8 ovarian) was 9.3 µM. For the same compound, the GI50 (SW-620 colon) was 2.26 µM, the TGI (SW-620 colon) was 5.28 µM and the GI50 (HOP-62 NSCLC) was 2.7 µM. It also gave a TGI (HOP-62 NSCLC) of 13.3 µM, a GI50 (RPMI-8226 leukemia) of 3.19 µM and a TGI (RPMI-8226 leukemia) of 20.4 µM. For the same compound, the GI50 (SNB-75 CNS) was 3.72 µM, the TGI (SNB-75 CNS) was 24.3 µM and the GI50 (SN12C renal) was 2.74 µM. For the same compound, the TGI (SN12C renal) was 10 µM, the GI50 (MDA-MB-231 breast) was 1.73 µM and the TGI (MDA-MB-231 breast) was 4.05 µM. For the same compound, the GI50 (HCT-15 colon) was 2.11 µM, the TGI (HCT-15 colon) was 5.47 µM and the GI50 (UO-31 renal) was 1.67 µM. For the same compound, the TGI (UO-31 renal) was 11.2 µM, the GI50 (A498 renal) was 10.2 µM and the TGI (A498 renal) was 24.6 µM. For the same compound, the GI50 (NCI-H23 lung) was 1.99 µM and the TGI (NCI-H23 lung) was 4.82 µM.

`Cc1ccc(NCCN(C)CC(C)O)c2c(=O)c3ccc(Cl)cc3sc12` (stereo not drawn) gave a GI50 (OVCAR-5 ovarian) of 3 µM, a TGI (OVCAR-5 ovarian) of over 100 µM and a GI50 (OVCAR-3 ovarian) of 4.13 µM. The TGI (OVCAR-3 ovarian) was over 100 µM, the GI50 (HS 578T breast) was 2.83 µM and the TGI (HS 578T breast) was over 100 µM. It also gave a GI50 (U251 CNS) of 3.68 µM, a TGI (U251 CNS) of over 100 µM and a GI50 (OVCAR-4 ovarian) of 8.47 µM. For the same compound, the TGI (OVCAR-4 ovarian) was 81.8 µM, the GI50 (SK-MEL-28 melanoma) was 1.75 µM and the TGI (SK-MEL-28 melanoma) was 3.31 µM. For the same compound, the GI50 (PC-3 prostate) was 2.96 µM, the TGI (PC-3 prostate) was over 100 µM and the GI50 (TK-10 renal) was 5.08 µM. The TGI (TK-10 renal) was over 100 µM, the GI50 (DU-145 prostate) was 3.75 µM and the TGI (DU-145 prostate) was over 100 µM. For the same compound, the GI50 (A549 NSCLC) was 4.08 µM, the TGI (A549 NSCLC) was over 100 µM and the GI50 (MALME-3M melanoma) was 1.78 µM. The TGI (MALME-3M melanoma) was 3.54 µM, the GI50 (SNB-19 CNS) was 4.62 µM and the TGI (SNB-19 CNS) was over 100 µM. For the same compound, the GI50 (SF-268 CNS) was 6.47 µM, the TGI (SF-268 CNS) was over 100 µM and the GI50 (SK-OV-3 ovarian) was 3.19 µM. The TGI (SK-OV-3 ovarian) was over 100 µM, the GI50 (UACC-257 melanoma) was 1.96 µM and the TGI (UACC-257 melanoma) was 3.57 µM. It also gave a GI50 (NCI/ADR-RES ovarian) of 4.68 µM, a TGI (NCI/ADR-RES ovarian) of over 100 µM and a GI50 (SK-MEL-5 melanoma) of 1.65 µM. It also gave a TGI (SK-MEL-5 melanoma) of 3.01 µM, a GI50 (NCI-H226 lung) of 5.45 µM and a TGI (NCI-H226 lung) of over 100 µM. For the same compound, the GI50 (M14 melanoma) was 1.77 µM, the TGI (M14 melanoma) was 3.38 µM and the GI50 (IGROV1 ovarian) was 4.79 µM. The TGI (IGROV1 ovarian) was over 100 µM, the GI50 (UACC-62 melanoma) was 1.85 µM and the TGI (UACC-62 melanoma) was 3.48 µM. It also gave a GI50 (MCF7 breast) of 2.18 µM, a TGI (MCF7 breast) of over 100 µM and a GI50 (BT-549 breast) of 5.14 µM. The TGI (BT-549 breast) was over 100 µM, the GI50 (OVCAR-8 ovarian) was 7.16 µM and the TGI (OVCAR-8 ovarian) was over 100 µM. It also gave a GI50 (SNB-75 CNS) of 6.65 µM, a TGI (SNB-75 CNS) of over 100 µM and a GI50 (SN12C renal) of 4.42 µM. The TGI (SN12C renal) was over 100 µM, the GI50 (A498 renal) was 2.31 µM and the TGI (A498 renal) was 8.37 µM.
